Laboratory results as given in PubChem BioAssay AID1745844 (Carcinogenic Potency Database (CPDB), 2022).
Calls of active or inactive are those of the source. No rule for the calls is given here.

System: rodent lifetime carcinogenesis bioassay, tumor incidence TD50
Experiment: chronic cancer bioassays in animals – CPDB, compiled studies (AID 1745844)
[1] = mouse, strain B6C3F1, females, in feed, site: any site (literature study), lesion: several types, types named in the paper, dosed 103 weeks, study length 105 weeks
[2] = rat, strain Fischer 344, males, in feed, site: liver, lesion: hepatocellular adenoma + hepatocellular carcinoma + neoplastic nodule, dosed 103 weeks, study length 105 weeks

CO[C@H]1[C@@H](O)[C@@H](CO)OC(OC2C3CO[C@H]2[C@H](O)C(C)O3)[C@@H]1O (some centres undefined)
carcinogen call [1]: negative (inactive) | TD50 (mouse, strain B6C3F1, males, in feed, site: any site (literature study), lesion: several types, types named in the paper, dosed 103 weeks, study length 105 weeks): 54900 mg/kg/day | TD50 (mouse, strain B6C3F1, males, in feed, site: liver, lesion: hepatocellular adenoma + hepatocellular carcinoma + neoplastic nodule, dosed 103 weeks, study length 105 weeks): 33100 mg/kg/day | TD50 (mouse, strain B6C3F1, males, in feed, site: liver, lesion: hepatocellular adenoma, dosed 103 weeks, study length 105 weeks): 18800 mg/kg/day (inactive) | TD50 (mouse, strain B6C3F1, males, in feed, site: lung, lesion: alveolar/bronchiolar adenoma + alveolar/bronchiolar carcinoma, dosed 103 weeks, study length 105 weeks): 102000 mg/kg/day | TD50 (rat, strain Fischer 344, females, in feed, site: adrenal gland, lesion: cortical adenoma, dosed 103 weeks, study length 105 weeks): 25800 mg/kg/day (inactive) | TD50 (rat, strain Fischer 344, males, in feed, site: any site (literature study), lesion: several types, types named in the paper, dosed 103 weeks, study length 105 weeks): 39300 mg/kg/day (inactive) | TD50 [2]: 25900 mg/kg/day

CN(C)c1ccc(N=NS(=O)(=O)O)cc1
TD50 (mouse, strain B6C3F1, females, in feed, site: any site (literature study), lesion: several types, types named in the paper, dosed 78 weeks, study length 95 weeks): 259 mg/kg/day | TD50 (mouse, strain B6C3F1, females, in feed, site: liver, lesion: hepatocellular adenoma + hepatocellular carcinoma + neoplastic nodule, dosed 78 weeks, study length 95 weeks): 152 mg/kg/day | TD50 (mouse, strain B6C3F1, females, in feed, site: liver, lesion: hepatocellular adenoma + hepatocellular carcinoma, dosed 78 weeks, study length 95 weeks): 152 mg/kg/day (inactive) | TD50 (mouse, strain B6C3F1, females, in feed, site: lung, lesion: alveolar/bronchiolar adenoma + alveolar/bronchiolar carcinoma, dosed 78 weeks, study length 95 weeks): 1750 mg/kg/day | carcinogen call (mouse, strain B6C3F1, males, in feed, site: any site (literature study), lesion: several types, types named in the paper, dosed 78 weeks, study length 94 weeks): negative (inactive) | carcinogen call (rat, strain Fischer 344, females, in feed, site: any site (literature study), lesion: several types, types named in the paper, dosed 78 weeks, study length 105 weeks): negative (inactive) | carcinogen call (rat, strain Fischer 344, males, in feed, site: any site (literature study), lesion: several types, types named in the paper, dosed 78 weeks, study length 105 weeks): negative (inactive)

CCN=c1cc2oc3cc(NCC)c(C)cc3c(-c3ccccc3C(=O)OCC)c-2cc1C
carcinogen call [1]: negative (inactive) | TD50 (mouse, strain B6C3F1, males, in feed, site: thyroid gland, lesion: follicular-cell adenoma + follicular-cell carcinoma, dosed 103 weeks, study length 105 weeks): 1210 mg/kg/day (inactive) | TD50 (rat, strain Fischer 344, females, in feed, site: adrenal medulla, lesion: pheochromocytoma, malignant + pheochromocytoma, benign, dosed 103 weeks, study length 105 weeks): 47.1 mg/kg/day | TD50 [2]: 553 mg/kg/day | TD50 (rat, strain Fischer 344, males, in feed, site: skin, lesion: keratoacanthoma, dosed 103 weeks, study length 105 weeks): 34.5 mg/kg/day

CC1CC(=O)O1 (centres undefined)
TD50 (rat, strain Eastern Sprague-Dawley, females, by gavage, site: forestomach, lesion: squamous-cell carcinoma, dosed 70 weeks, study length 70 weeks): 13.8 mg/kg/day

C#C[C@]1(O)CC[C@H]2[C@@H]3CCc4cc(OC)ccc4[C@H]3CC[C@@]21C
TD50 (mouse, strain CFLP, females, in feed, site: liver, lesion: hepatocellular tumor, dosed 78 weeks, study length 78 weeks): 6.27 mg/kg/day (inactive) | TD50 (mouse, strain CFLP, males, in feed, site: liver, lesion: hepatocellular tumor, dosed 78 weeks, study length 78 weeks): 1.81 mg/kg/day (inactive)

CN=C(NC#N)NCCSCc1nc[nH]c1C
TD50 (mouse, strain C57BL/6, females, in drinking water, site: liver, lesion: several types, types named in the paper, dosed 126 weeks, study length 126 weeks): 52200 mg/kg/day (inactive) | carcinogen call (mouse, strain C57BL/6, females, in drinking water, site: lung, lesion: one or several types, types not named, dosed 126 weeks, study length 126 weeks): negative (inactive) | carcinogen call (rat, strain Charles River CD (Sprague-Dawley), females, by gavage, site: gastric mucosa, lesion: carcinoid tumor, malignant, dosed 105 weeks, study length 105 weeks): negative (inactive) | carcinogen call (rat, strain Charles River CD (Sprague-Dawley), males, by gavage, site: gastric mucosa, lesion: carcinoid tumor, malignant, dosed 105 weeks, study length 105 weeks): negative (inactive)

CN(C)C(=O)Nc1ccc(Cl)c(Cl)c1
carcinogen call (mouse, strain B6AKF1, females, oral dosing, site: any site (literature study), lesion: several types, types named in the paper, dosed 76 weeks, study length 76 weeks): negative (inactive) | carcinogen call (mouse, strain B6AKF1, females, oral dosing, site: liver, lesion: hepatoma, dosed 76 weeks, study length 76 weeks): negative (inactive) | carcinogen call (mouse, strain B6AKF1, females, oral dosing, site: lung, lesion: adenoma, dosed 76 weeks, study length 76 weeks): negative (inactive) | TD50 (mouse, strain B6AKF1, males, oral dosing, site: any site (literature study), lesion: several types, types named in the paper, dosed 76 weeks, study length 76 weeks): 260 mg/kg/day (inactive) | carcinogen call (mouse, strain B6AKF1, males, oral dosing, site: liver, lesion: hepatoma, dosed 76 weeks, study length 76 weeks): negative (inactive) | TD50 (mouse, strain B6AKF1, males, oral dosing, site: lung, lesion: adenoma, dosed 76 weeks, study length 76 weeks): 437 mg/kg/day (inactive) | TD50 (mouse, strain B6C3F1, females, oral dosing, site: any site (literature study), lesion: several types, types named in the paper, dosed 76 weeks, study length 76 weeks): 388 mg/kg/day (inactive) | carcinogen call (mouse, strain B6C3F1, females, oral dosing, site: liver, lesion: hepatoma, dosed 76 weeks, study length 76 weeks): negative (inactive) | TD50 (mouse, strain B6C3F1, females, oral dosing, site: lung, lesion: adenoma, dosed 76 weeks, study length 76 weeks): 600 mg/kg/day (inactive) | TD50 (mouse, strain B6C3F1, males, oral dosing, site: any site (literature study), lesion: several types, types named in the paper, dosed 76 weeks, study length 76 weeks): 361 mg/kg/day (inactive) | TD50 (mouse, strain B6C3F1, males, oral dosing, site: liver, lesion: hepatoma, dosed 76 weeks, study length 76 weeks): 1150 mg/kg/day (inactive) | TD50 (mouse, strain B6C3F1, males, oral dosing, site: lung, lesion: adenoma, dosed 76 weeks, study length 76 weeks): 1150 mg/kg/day (inactive)

O=C1OC(O)C(C(Cl)Cl)=C1Cl (centres undefined)
TD50 (rat, strain Wistar, females, in drinking water, site: adrenal gland, lesion: cortical adenoma, dosed 104 weeks, study length 104 weeks): 10.6 mg/kg/day | TD50 (rat, strain Wistar, females, in drinking water, site: all sites, lesion: lymphoma and leukemia, combined, dosed 104 weeks, study length 104 weeks): 41.5 mg/kg/day | TD50 (rat, strain Wistar, females, in drinking water, site: liver, lesion: cholangioadenoma/carcinoma, dosed 104 weeks, study length 104 weeks): 2.73 mg/kg/day | TD50 (rat, strain Wistar, females, in drinking water, site: liver, lesion: cholangiocarcinoma, dosed 104 weeks, study length 104 weeks): 122 mg/kg/day | TD50 (rat, strain Wistar, females, in drinking water, site: liver, lesion: cholangioma, dosed 104 weeks, study length 104 weeks): 2.73 mg/kg/day | TD50 (rat, strain Wistar, females, in drinking water, site: liver, lesion: hepatocellular adenoma, dosed 104 weeks, study length 104 weeks): 16 mg/kg/day | TD50 (rat, strain Wistar, females, in drinking water, site: liver, lesion: hepatocellular tumor, dosed 104 weeks, study length 104 weeks): 14.9 mg/kg/day | TD50 (rat, strain Wistar, females, in drinking water, site: mammary gland, lesion: adenocarcinoma, dosed 104 weeks, study length 104 weeks): 14 mg/kg/day | TD50 (rat, strain Wistar, females, in drinking water, site: mammary gland, lesion: fibroadenoma, dosed 104 weeks, study length 104 weeks): 5.13 mg/kg/day | TD50 (rat, strain Wistar, females, in drinking water, site: mammary gland, lesion: several types, types named in the paper, dosed 104 weeks, study length 104 weeks): 13 mg/kg/day | TD50 (rat, strain Wistar, females, in drinking water, site: thyroid gland, lesion: follicular-cell adenoma, dosed 104 weeks, study length 104 weeks): 0.645 mg/kg/day | TD50 (rat, strain Wistar, females, in drinking water, site: thyroid gland, lesion: follicular-cell carcinoma, dosed 104 weeks, study length 104 weeks): 5.2 mg/kg/day | TD50 (rat, strain Wistar, females, in drinking water, site: thyroid gland, lesion: several types, types named in the paper, dosed 104 weeks, study length 104 weeks): 0.741 mg/kg/day | TD50 (rat, strain Wistar, males, in drinking water, site: adrenal gland, lesion: cortical adenoma, dosed 104 weeks, study length 104 weeks): 9.68 mg/kg/day | TD50 (rat, strain Wistar, males, in drinking water, site: all sites, lesion: lymphoma and leukemia, combined, dosed 104 weeks, study length 104 weeks): 53.1 mg/kg/day | TD50 (rat, strain Wistar, males, in drinking water, site: liver, lesion: cholangioma, dosed 104 weeks, study length 104 weeks): 31.4 mg/kg/day | TD50 (rat, strain Wistar, males, in drinking water, site: liver, lesion: hepatocellular adenoma, dosed 104 weeks, study length 104 weeks): 24.4 mg/kg/day | TD50 (rat, strain Wistar, males, in drinking water, site: liver, lesion: hepatocellular carcinoma, dosed 104 weeks, study length 104 weeks): 53.4 mg/kg/day | TD50 (rat, strain Wistar, males, in drinking water, site: liver, lesion: hepatocellular tumor, dosed 104 weeks, study length 104 weeks): 17.7 mg/kg/day | TD50 (rat, strain Wistar, males, in drinking water, site: lung, lesion: alveolar/bronchiolar adenoma, dosed 104 weeks, study length 104 weeks): 23.4 mg/kg/day | TD50 (rat, strain Wistar, males, in drinking water, site: pancreatic islets, lesion: islet-cell adenoma, dosed 104 weeks, study length 104 weeks): 16 mg/kg/day | TD50 (rat, strain Wistar, males, in drinking water, site: pancreatic islets, lesion: several types, types named in the paper, dosed 104 weeks, study length 104 weeks): 16.6 mg/kg/day | TD50 (rat, strain Wistar, males, in drinking water, site: thyroid gland, lesion: follicular-cell adenoma, dosed 104 weeks, study length 104 weeks): 0.532 mg/kg/day | TD50 (rat, strain Wistar, males, in drinking water, site: thyroid gland, lesion: follicular-cell carcinoma, dosed 104 weeks, study length 104 weeks): 3.25 mg/kg/day | TD50 (rat, strain Wistar, males, in drinking water, site: thyroid gland, lesion: several types, types named in the paper, dosed 104 weeks, study length 104 weeks): 0.678 mg/kg/day

CCCCN(N)C=O
TD50 (mouse, strain Swiss albino, females, in drinking water, site: clitoral gland, lesion: several types, types named in the paper, dosed 92 weeks, study length 92 weeks): 252 mg/kg/day | TD50 (mouse, strain Swiss albino, females, in drinking water, site: clitoral gland, lesion: squamous-cell carcinoma, dosed 92 weeks, study length 92 weeks): 321 mg/kg/day | TD50 (mouse, strain Swiss albino, females, in drinking water, site: lung, lesion: several types, types named in the paper, dosed 92 weeks, study length 92 weeks): 19.4 mg/kg/day | carcinogen call (mouse, strain Swiss albino, males, in drinking water, site: liver, lesion: angioma, dosed 90 weeks, study length 90 weeks): negative (inactive) | TD50 (mouse, strain Swiss albino, males, in drinking water, site: lung, lesion: several types, types named in the paper, dosed 90 weeks, study length 90 weeks): 19.2 mg/kg/day | TD50 (mouse, strain Swiss albino, males, in drinking water, site: preputial gland, lesion: angiosarcoma, dosed 90 weeks, study length 90 weeks): 519 mg/kg/day | TD50 (mouse, strain Swiss albino, males, in drinking water, site: preputial gland, lesion: fibrosarcoma, dosed 90 weeks, study length 90 weeks): 304 mg/kg/day | TD50 (mouse, strain Swiss albino, males, in drinking water, site: preputial gland, lesion: several types, types named in the paper, dosed 90 weeks, study length 90 weeks): 28.2 mg/kg/day | TD50 (mouse, strain Swiss albino, males, in drinking water, site: preputial gland, lesion: squamous-cell carcinoma, dosed 90 weeks, study length 90 weeks): 35.6 mg/kg/day

Nc1nc(-c2ccc([N+](=O)[O-])o2)cs1
TD50 (mouse, strain Swiss, females, in feed, site: any site (literature study), lesion: several types, types named in the paper, dosed 46 weeks, study length 55 weeks): 6.83 mg/kg/day | TD50 (mouse, strain Swiss, females, in feed, site: forestomach, lesion: several types, types named in the paper, dosed 46 weeks, study length 55 weeks): 7.87 mg/kg/day | TD50 (mouse, strain Swiss, females, in feed, site: forestomach, lesion: squamous-cell papilloma, dosed 46 weeks, study length 55 weeks): 11.5 mg/kg/day | TD50 (rat, strain Fischer, females, in feed, site: forestomach, lesion: several types, types named in the paper, dosed 52 weeks, study length 68 weeks): 5.85 mg/kg/day | TD50 (rat, strain Fischer, females, in feed, site: forestomach, lesion: squamous-cell papilloma, dosed 52 weeks, study length 68 weeks): 8.94 mg/kg/day | TD50 (rat, strain Fischer, females, in feed, site: urinary bladder, lesion: several types, types named in the paper, dosed 52 weeks, study length 68 weeks): 30.3 mg/kg/day
